The results in this text go back to PubChem BioAssay (NCI).

Holding throughout (test): NCI tumour cell line growth inhibition, 48 h
Assay [1] concerns SNB-75 CNS.
Assay [2] has as its system HOP-18 NSCLC.
The subject of assay [3] is P388 leukemia.
Assay [4] concerns SN12K1 renal.
In assay [5] the test system is P388/ADR leukemia.
Assay [6] relates to NCI-H522 lung.
The subject of assay [7] is ACHN renal.
The subject of assay [8] is BT-549 breast.

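Cultured in 96-well plates, cells were exposed to test compound for 48 hours across five concentrations. TGI is the concentration that stops growth completely.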 Some results are limits rather than exact numbers.

As for `CCC1=CC2CN3CCc4c([nH]c5ccccc45)C(C(=O)OC)(C2)C13` (stereo not drawn), the TGI in assay [1] was 89.9 µM; in assay [2], more than 30 µM; in assay [3] it was 93.1 µM; in assay [4], 39.6 µM; in assay [5] it was 131 µM; in assay [6], 102 µM.
Take `CCOC(=O)c1csc(NC(=O)CCN2CCCCC2)n1`: the TGI in assay [7] was more than 100 µM.
As for `CN1C2CC(=O)CC1[C@H](O)[C@@H]2O`, the TGI in assay [8] is more than 100 µM.
